Data: patent US20200188237A1, “ENDODONTIC FORMULATIONS CONTAINING CYSTEAMINE AND CYSTEAMINE DERIVATIVES AND USES THEREOF” (University of Florida Research Foundation, Inc., priority 2017, published 2020)

What was measured:
[1] = tested on: Fusobacterium nucleatum (ATCC10953); test: Bacterial removal from root canals of inoculated extracted human mandibular molars, instrumentation/irrigation, qPCR; assay type: cell-based; conditions: pre- vs post-instrumentation/irrigation, human mandibular molars incubated 14 days anaerobic
Description: (§1) Forty human mandibular molars were accessed, sterilized, inoculated with Enterococcus faecalis (OG1RF) and Fusobacterium nucleatum (ATCC10953), and incubated for 14 days under anaerobic conditions. Teeth were divided into 3 groups (n=10): 1) 6.15% NaOCl, 2) 8.25% NaOCl, 3) Cysteamine. Controls (n=5): negative without inoculation and positive without instrumentation/irrigation. Mesiobuccal and mesiolingual canals were instrumented using Vortex Blue to 30/.04 and the corresponding irrigant, followed by neutralization with EDTA and saline. Samples were collected pre- and post-instrumentation/irrigation. Total DNA was extracted and quantitative real-time PCR was performed. Data were analyzed using one-way ANOVA with Bonferroni's multiple comparisons (p<0.05). See FIG. 1 for a schematic representation of the methods.

[2] = tested on: Enterococcus faecalis (OG1RF); test: as above; assay type: cell-based; conditions: pre- vs post-instrumentation/irrigation, human mandibular molars incubated 14 days anaerobic
Description: as §1

Row | SMILES | percent reduction in Fusobacterium nucleatum ([1]; Cysteamine irrigant) [%] | percent reduction in Enterococcus faecalis ([2]; Cysteamine irrigant) [%] | percent reduction in Fusobacterium nucleatum ([1]; 6.15% NaOCl irrigant) [%] | percent reduction in Fusobacterium nucleatum ([1]; 8.25% NaOCl irrigant) [%] | percent reduction in Enterococcus faecalis ([2]; 6.15% NaOCl irrigant) [%] | percent reduction in Enterococcus faecalis ([2]; 8.25% NaOCl irrigant) [%]
1 | NCCS [Cysteamine] | 68.5 | 60 | – | – | – | –
2 | OCl [NaOCl, sodium hypochlorite] | – | – | 59.9 | 63.4 | 49 | 54
